Patent publication US20050256177A1, “Phenyl derivatives for the treatment of abnormal cell growth” (Pfizer Inc, priority 2004, published 2005)

How the values were obtained:
[1] = Metabolite profiling after single oral dose of [14C]-labelled parent drug in healthy male subjects; type: in vivo, human; conditions: for presence in HPLC-radiochromatogram of circulating metabolites: human plasma; for presence in HPLC-radiochromatogram of circulating metabolites / presence in HPLC-radiochromatogram of human urinary metabolites / presence in HPLC-radiochromatogram of human fecal metabolites: single 100 mg oral dose of labelled compound; for matrices in which the metabolite was detected (humans) / presence in HPLC-radiochromatogram of human urinary metabolites: human urine; for matrices in which the metabolite was detected (humans): feces, plasma; for presence in HPLC-radiochromatogram of human fecal metabolites: human feces
Description: Four normal healthy male subjects between the ages of 26 and 55 years participated in the study. The subjects entered the Clinical Research Facility 12 hours before dosing, and remained there for up to 384 hours after dosing under continuous medical observation. All subjects had fasted at least 8 hours and were given a single 100 mg oral dose of the labeled compound (˜93 μCi/subject). The dose was administered in an open fashion in the morning. A standard meal was provided 4 hours later. The dosing formulation was prepared by dissolving the radiolabeled material in citrate buffered vehicle that was prepared by adding 100 ml of water to a 4 oz. amber bottle containing a dry powder blend of citric acid and sodium citrate. Total volume of dosage given was 240 ml.
After dosing, urine samples were collected for up to 16 days between the following time points: 0-12, 12-24, 24-48, 48-72, 72-96, 96-120, 120-144, 144-168, 168-192, 192-216, 216-240, 240-264, 264-288, 288-312, 312-336, 336-360 and 360-384 hours post-dose (i.e., first sample collected between 0-12 hours, second sample collected between 12-24 hours, and so on). The total volume of the urine samples was recorded after each collection. Feces were collected as passed, from time of dosing until 384 hours after dosing.
Blood sufficient to provided a minimum of 7 ml of plasma was collected, in heparinized tubes, from each subject at 0 (just before dosing), 1, 2, 4, 6, 8, 10, 12, 16, 24, 48, 72, 96, 120, 144 and 168 hours after the dose. Within 1 hour after collection, the blood samples were centrifuged in a refrigerated centrifuge and plasma was separated from whole blood. Samples collected over the first 168 hours post-dose were divided into two aliquots (3 ml and 4 ml). The 3 ml aliquots were used for the quantitation of unchanged 3-(4-bromo-2,6-difluoro-benzyloxy)-5-[3-(4-pyrrolidin-1-yl-butyl)-ureido]-isothiazole-4-carboxylic acid amide The other 4 ml aliquots were used for the analysis of total radioactivity. For metabolite identification, blood sufficient to yield 20 ml of plasma was collected at 4, 6, 8, 12, 16 and 24 hours after the dose. All samples were labeled, immediately frozen, and stored at −20° C. until analysis.
Radioactivity in urine, feces, and plasma was measured by liquid scintillation counting. All samples were counted in a Wallac 1409 liquid scintillation counter with quench correction determined by monitoring the Compton edge of the external gamma source. Radioactivity less than twice the background value of the pre-dose matrix was considered to be below the limit of quantification.
Urine samples obtained between the following time points were pooled for each subject: 0-12, 12-24, 24-48, 48-72 hours after the dose (i.e., first sample collected between 0-12 hours, second sample collected between 12-24 hours, and so on). The pooled samples (˜100 ml) were lyophilized overnight. The residues were extracted with methanol twice (10 and 5 ml). The supernatants were combined and 0.2 ml aliquots were counted in a liquid scintillation counter to determine the extraction efficiency. The supernatants were evaporated to dryness in a Turbo Vap LV evaporator. The residues were reconstituted with 1 ml of MeOH. Aliquots (50 μl) were injected onto the HPLC column without further purification.
Fecal homogenates were pooled (up to 0-264 hours) for each subject. The pooled samples (˜10 g) were suspended in 25 ml of acetonitrile. The suspensions were sonicated for 10 min, then stirred on a magnetic stirrer for 1 hour and centrifuged. Supernatants were separated and the residues further extracted with 25 ml of acetonitrile. The two supernatants were combined and 1 ml aliquots were counted in a scintillation counter to determine the extraction efficiency. The organic solvents were evaporated to dryness in a Turbo Vap LV evaporator and the residues were reconstituted in 1 ml of MeOH:water (50:50). Aliquots (100 μl) of concentrated fecal extracts were injected onto the HPLC column. […]

[2] = Metabolite detection in Sprague-Dawley rats, methods similar to those used for human samples; type: in vivo; conditions: rat urine, feces, bile, plasma
[3] = Metabolite detection in beagle dogs, methods similar to those used for human samples; type: in vivo; conditions: dog urine, feces, bile, plasma

Structure (SMILES) | presence in HPLC-radiochromatogram of circulating metabolites [1] | matrices in which the metabolite was detected (humans) [1] | presence in HPLC-radiochromatogram of human urinary metabolites [1] | matrices in which the metabolite was detected (rats) [2] | presence in HPLC-radiochromatogram of human fecal metabolites [1] | matrices in which the metabolite was detected (beagle dogs) [3]
O=C(O)c1c(F)cc(Br)cc1F [Metabolite M4, 4-bromo-2,6-difluorobenzoic acid] | presence | detected in urine and plasma | presence | found in rat urine | – | –
NC(=O)c1c(OCc2c(F)cc(Br)cc2F)nsc1NC(=O)NCCCC(=O)O [Metabolite M9, 4-{3-[3-(4-bromo-2,6-difluorobenzyloxy)-4-carbamoyl-isothiazol-5-yl]-ureido}-butyric acid] | presence | detected in feces and plasma | – | – | presence | found in dog feces
NC(=O)c1c(OCc2c(F)cc(Br)cc2F)nsc1NC(=O)NCCCCN1CCCC1 [3-(4-Bromo-2,6-difluoro-benzyloxy)-5-[3-(4-pyrrolidin-1-yl-butyl)-ureido]-isothiazole-4-carboxylic acid amide, reference compound] | presence | – | presence | – | presence | –
NC(=O)c1c(OCc2c(F)cc(Br)cc2F)nsc1NC(=O)NCCCC[N+]1([O-])CCCC1 [Metabolite M2, 3-(4-bromo-2,6-difluoro-benzyloxy)-5-[3-(4-pyrrolidin-1-yl-N-oxide-butyl)-ureido]-isothiazole-4-carboxylic acid amide] | – | detected in urine of humans | presence | – | – | in urine, feces, bile and plasma of Beagle dogs
NC(=O)c1c(OCc2c(F)cc(Br)cc2F)nsc1NC(=O)NCCCCN1CC=CC1=O [Metabolite M8, 3-(4-bromo-2,6-difluoro-benzyloxy)-5-{3-[4-(2-oxo-2,5-dihyro-pyrrol-1-yl)-butyl]-ureido}-isothiazole-4-carboxylic acid amide] | – | – | – | detected in feces, bile and plasma of beagle dogs and Sprague-Dawley Rats | – | detected in feces, bile and plasma of beagle dogs
CC(=O)NC(CSCc1c(F)cc(Br)cc1F)C(=O)O (stereo not shown) [Metabolite M5, 2-Acetylamino-3-(4-bromo-2,6-difluoro-benzylsulfanyl)-propionic acid] | – | detected in urine of humans | presence | – | – | detected in urine of humans and beagle dogs
NC(=O)c1c(OCc2c(F)cc(Br)cc2F)nsc1NC(=O)NCCCCNCCCC(=O)O [Metabolite M1, 4-(4-{3-[3-(4-bromo-2,6-difluoro-benzyloxy)-4-carbamoyl-isothiazol-5-yl]-ureido}-butylamino)-butyric acid] | – | detected in urine and feces of humans | presence | – | presence | –
